Laboratory results taken from ChEMBL document CHEMBL1275354, “Anticonvulsant activity of 2,4(1H)-diarylimidazoles in mice and rats acute seizure models” (Bioorg Med Chem, 2010).
Values belong to the molecule of their own block, whether it stands above or below them. The source made the active and inactive calls. No cut-off for these calls is given here.

Legend:
Mus musculus [1] = test: Neurotoxicity in ip dosed albino CF1 mouse assessed as minimum dose required to cause toxicity after 0.5 hrs by rotarod test; type: organism-based; conditions: in vivo
Mus musculus [2] = test: Neurotoxicity in albino CF1 mouse assessed as minimal motor impairment at 30 mg/kg, ip after 0.5 hrs by rotarod test; type: toxicity, organism-based; design: dose 30 mg/kg, route intraperitoneal; conditions: in vivo
Mus musculus [3] = test: Anticonvulsant activity in albino CF1 mouse assessed as protection against maximal electroshock-induced seizures at 100 mg/kg, ip after 0.5 hrs; type: functional, organism-based; design: dose 100 mg/kg
Mus musculus [4] = test: Anticonvulsant activity against subcutaneous metrazole-induced seizures in ip dosed albino CF1 mouse assessed as minimum effective dose after 4 hrs; type: functional; conditions: albino CF1, 4 h, read-out: MED
Mus musculus [5] = test: Anticonvulsant activity in albino CF1 mouse assessed as protection against maximal electroshock-induced seizures at 230 mg/kg, ip after 0.25 hrs; type: functional, organism-based; design: dose 230 mg/kg
Mus musculus [6] = test: Anticonvulsant activity in albino CF1 mouse assessed as protection against subcutaneous metrazole-induced seizures at 125 mg/kg, ip after 0.25 hrs; type: functional, organism-based; design: dose 125 mg/kg
Mus musculus [7] = test: Anticonvulsant activity in albino CF1 mouse assessed as protection against subcutaneous metrazole-induced seizures at 250 mg/kg, ip after 0.25 hrs; type: functional, organism-based; design: dose 250 mg/kg
Mus musculus [8] = test: Neurotoxicity in albino CF1 mouse assessed as minimal motor impairment at 500 mg/kg, ip after 0.25 hrs by rotarod test; type: toxicity, organism-based; design: dose 500 mg/kg, route intraperitoneal; conditions: in vivo
Mus musculus [9] = test: Neurotoxicity in albino CF1 mouse assessed as minimal motor impairment at 350 mg/kg, ip after 0.25 hrs by rotarod test; type: toxicity, organism-based; design: dose 350 mg/kg, route intraperitoneal; conditions: in vivo
[10] = molecular target: Sodium channel protein type 2 subunit alpha (Homo sapiens, UniProt Q99250); test: Inhibition of human NaV1.2 expressed in HEK cells at -60 mV holding potential by patch clamp recording technique; type: cell-based, HEK293
Sodium channel protein type 2 subunit alpha, sequence (Q99250 whole entry): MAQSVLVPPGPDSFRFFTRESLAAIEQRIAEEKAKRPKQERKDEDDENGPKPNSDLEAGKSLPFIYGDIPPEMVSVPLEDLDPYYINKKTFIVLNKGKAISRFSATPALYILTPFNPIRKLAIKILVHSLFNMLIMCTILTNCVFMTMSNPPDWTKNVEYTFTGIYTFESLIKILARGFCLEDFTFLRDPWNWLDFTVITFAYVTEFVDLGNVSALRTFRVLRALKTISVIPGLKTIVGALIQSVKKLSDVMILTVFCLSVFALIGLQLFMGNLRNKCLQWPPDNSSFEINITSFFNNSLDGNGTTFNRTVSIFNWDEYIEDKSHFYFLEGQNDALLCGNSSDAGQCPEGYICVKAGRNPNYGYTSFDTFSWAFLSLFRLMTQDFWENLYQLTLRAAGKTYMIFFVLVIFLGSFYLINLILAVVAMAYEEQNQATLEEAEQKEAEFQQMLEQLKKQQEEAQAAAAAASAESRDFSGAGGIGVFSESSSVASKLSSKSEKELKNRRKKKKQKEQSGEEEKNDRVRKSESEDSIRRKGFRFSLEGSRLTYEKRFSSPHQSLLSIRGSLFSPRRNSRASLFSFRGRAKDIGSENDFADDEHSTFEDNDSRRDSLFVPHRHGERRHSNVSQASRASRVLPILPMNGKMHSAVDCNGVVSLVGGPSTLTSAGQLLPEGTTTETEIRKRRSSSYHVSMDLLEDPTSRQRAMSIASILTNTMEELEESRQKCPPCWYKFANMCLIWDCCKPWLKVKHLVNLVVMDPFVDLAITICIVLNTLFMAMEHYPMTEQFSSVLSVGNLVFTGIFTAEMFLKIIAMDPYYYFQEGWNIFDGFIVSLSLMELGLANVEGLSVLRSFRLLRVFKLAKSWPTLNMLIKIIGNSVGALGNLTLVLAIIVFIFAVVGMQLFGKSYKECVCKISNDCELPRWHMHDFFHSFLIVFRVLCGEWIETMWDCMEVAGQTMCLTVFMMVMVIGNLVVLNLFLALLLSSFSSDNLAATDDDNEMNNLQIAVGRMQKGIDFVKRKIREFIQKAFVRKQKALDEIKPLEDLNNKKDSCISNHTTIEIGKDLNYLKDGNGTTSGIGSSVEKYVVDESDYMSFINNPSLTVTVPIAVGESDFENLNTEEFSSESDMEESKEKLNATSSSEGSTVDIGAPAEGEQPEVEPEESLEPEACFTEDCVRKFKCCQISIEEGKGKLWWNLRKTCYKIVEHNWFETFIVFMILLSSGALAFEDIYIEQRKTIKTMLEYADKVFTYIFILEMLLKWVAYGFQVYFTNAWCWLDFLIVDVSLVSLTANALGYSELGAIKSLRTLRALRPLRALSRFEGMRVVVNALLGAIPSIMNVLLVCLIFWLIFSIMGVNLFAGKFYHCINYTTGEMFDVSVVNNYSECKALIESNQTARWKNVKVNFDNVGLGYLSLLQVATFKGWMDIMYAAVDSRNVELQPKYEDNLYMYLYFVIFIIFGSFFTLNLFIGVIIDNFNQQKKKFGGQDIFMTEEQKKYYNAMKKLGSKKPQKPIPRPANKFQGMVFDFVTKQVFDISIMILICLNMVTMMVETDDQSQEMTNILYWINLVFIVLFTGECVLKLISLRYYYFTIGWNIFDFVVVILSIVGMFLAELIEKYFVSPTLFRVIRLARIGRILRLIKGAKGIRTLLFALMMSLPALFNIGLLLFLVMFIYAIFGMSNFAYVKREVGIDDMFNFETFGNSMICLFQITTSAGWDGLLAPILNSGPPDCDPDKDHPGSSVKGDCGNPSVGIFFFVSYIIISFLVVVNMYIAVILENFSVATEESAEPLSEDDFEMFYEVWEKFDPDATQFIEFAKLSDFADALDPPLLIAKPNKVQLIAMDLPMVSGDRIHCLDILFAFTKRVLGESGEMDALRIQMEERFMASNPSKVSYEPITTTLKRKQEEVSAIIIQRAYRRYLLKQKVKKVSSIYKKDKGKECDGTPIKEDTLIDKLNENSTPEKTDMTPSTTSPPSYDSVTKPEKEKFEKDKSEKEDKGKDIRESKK

Mus musculus [11] = organism: Mus musculus; test: Protective index, ratio of TD50 for albino CF1 mouse by rotarod test to ED50 for albino CF1 mouse by maximal electroshock seizures test; type: functional
Mus musculus [12] = test: Anticonvulsant activity ip dosed albino CF1 mouse assessed as protection against subcutaneous metrazole-induced seizures after 0.25 hrs; type: functional; conditions: albino CF1, 0.25 h
Mus musculus [13] = test: Neurotoxicity in ip dosed albino CF1 mouse assessed as minimal motor impairment after 0.25 hrs by rotarod test; type: toxicity, organism-based; conditions: in vivo
Rattus norvegicus [14] = test: Neurotoxicity in albino Sprague-Dawley rat assessed as minimal motor impairment at 30 mg/kg, po by rotarod test; type: toxicity, organism-based; design: dose 30 mg/kg, route oral; conditions: in vivo
Mus musculus [15] = test: Anticonvulsant activity ip dosed albino CF1 mouse assessed as protection against maximal electroshock-induced seizures after 0.25 hrs; type: functional
Rattus norvegicus [16] = test: Anticonvulsant activity in albino Sprague-Dawley rat assessed as protection against maximal electroshock-induced seizures at 30 mg/kg, po after 0.25 hrs; type: functional, organism-based; design: dose 30 mg/kg
Rattus norvegicus [17] = test: Anticonvulsant activity in albino Sprague-Dawley rat assessed as protection against maximal electroshock-induced seizures at 30 mg/kg, po after 0.5 hrs; type: functional, organism-based; design: dose 30 mg/kg
Rattus norvegicus [18] = test: Anticonvulsant activity in albino Sprague-Dawley rat assessed as protection against maximal electroshock-induced seizures at 30 mg/kg, po after 1 hr; type: functional, organism-based; design: dose 30 mg/kg
Rattus norvegicus [19] = test: Anticonvulsant activity in albino Sprague-Dawley rat assessed as protection against maximal electroshock-induced seizures at 30 mg/kg, po after 2 hrs; type: functional, organism-based; design: dose 30 mg/kg
Rattus norvegicus [20] = test: Anticonvulsant activity in albino Sprague-Dawley rat assessed as protection against maximal electroshock-induced seizures at 30 mg/kg, po after 4 hrs; type: functional, organism-based; design: dose 30 mg/kg
Mus musculus [21] = test: Neurotoxicity in albino CF1 mouse assessed as minimal motor impairment at 30 mg/kg, ip after 4 hrs by rotarod test; type: toxicity, organism-based; design: dose 30 mg/kg, route intraperitoneal; conditions: in vivo
Mus musculus [22] = test: Neurotoxicity in albino CF1 mouse assessed as minimal motor impairment at 100 mg/kg, ip after 0.5 hrs by rotarod test; type: toxicity, organism-based; design: dose 100 mg/kg, route intraperitoneal; conditions: in vivo
Mus musculus [23] = test: Neurotoxicity in albino CF1 mouse assessed as minimal motor impairment at 100 mg/kg, ip after 4 hrs by rotarod test; type: toxicity, organism-based; design: dose 100 mg/kg, route intraperitoneal; conditions: in vivo
Mus musculus [24] = test: Neurotoxicity in albino CF1 mouse assessed as minimal motor impairment at 300 mg/kg, ip after 4 hrs by rotarod test; type: toxicity, organism-based; design: dose 300 mg/kg, route intraperitoneal; conditions: in vivo
Mus musculus [25] = test: Anticonvulsant activity in albino CF1 mouse assessed as protection against maximal electroshock-induced seizures at 100 mg/kg, ip after 4 hrs; type: functional, organism-based; design: dose 100 mg/kg
Mus musculus [26] = test: Anticonvulsant activity in albino CF1 mouse assessed as protection against maximal electroshock-induced seizures at 300 mg/kg, ip after 0.5 hrs; type: functional, organism-based; design: dose 300 mg/kg
Mus musculus [27] = test: Anticonvulsant activity in albino CF1 mouse assessed as protection against maximal electroshock-induced seizures at 300 mg/kg, ip after 4 hrs; type: functional, organism-based; design: dose 300 mg/kg
Mus musculus [28] = test: Anticonvulsant activity in albino CF1 mouse assessed as protection against subcutaneous metrazole-induced seizures at 30 mg/kg, ip after 0.5 hrs; type: functional, organism-based; design: dose 30 mg/kg
Mus musculus [29] = test: Anticonvulsant activity in albino CF1 mouse assessed as protection against subcutaneous metrazole-induced seizures at 30 mg/kg, ip after 4 hrs; type: functional, organism-based; design: dose 30 mg/kg
Mus musculus [30] = test: Anticonvulsant activity in albino CF1 mouse assessed as protection against subcutaneous metrazole-induced seizures at 100 mg/kg, ip after 0.5 hrs; type: functional, organism-based; design: dose 100 mg/kg
Mus musculus [31] = test: Anticonvulsant activity in albino CF1 mouse assessed as protection against subcutaneous metrazole-induced seizures at 100 mg/kg, ip after 4 hrs; type: functional, organism-based; design: dose 100 mg/kg
Mus musculus [32] = test: Anticonvulsant activity in albino CF1 mouse assessed as protection against subcutaneous metrazole-induced seizures at 300 mg/kg, ip after 0.5 hrs; type: functional, organism-based; design: dose 300 mg/kg
Mus musculus [33] = test: Anticonvulsant activity in albino CF1 mouse assessed as protection against subcutaneous metrazole-induced seizures at 300 mg/kg, ip after 4 hrs; type: functional, organism-based; design: dose 300 mg/kg
Mus musculus [34] = test: Neurotoxicity in albino CF1 mouse assessed as minimal motor impairment at 30 to 300 mg/kg, po after 4 hrs by rotarod test; type: toxicity, organism-based; design: dose 30-300 mg/kg, route oral; conditions: in vivo
Mus musculus [35] = test: Anticonvulsant activity in albino CF1 mouse assessed as protection against maximal electroshock-induced seizures at 30 mg/kg, ip after 0.5 hrs; type: functional, organism-based; design: dose 30 mg/kg
Mus musculus [36] = test: Anticonvulsant activity in albino CF1 mouse assessed as protection against maximal electroshock-induced seizures at 30 mg/kg, ip after 4 hrs; type: functional, organism-based; design: dose 30 mg/kg
Mus musculus [37] = test: Neurotoxicity in ip dosed albino CF1 mouse assessed as minimum dose required to cause toxicity after 4 hrs by rotarod test; type: organism-based; conditions: in vivo
Mus musculus [38] = test: Anticonvulsant activity against maximal electroshock-induced seizures in ip dosed albino CF1 mouse assessed as minimum effective dose after 0.5 hrs; type: functional; conditions: read-out: MED
Mus musculus [39] = test: Anticonvulsant activity against maximal electroshock-induced seizures in ip dosed albino CF1 mouse assessed as minimum effective dose after 4 hrs; type: functional; conditions: read-out: MED
Mus musculus [40] = test: Anticonvulsant activity against subcutaneous metrazole-induced seizures in ip dosed albino CF1 mouse assessed as minimum effective dose after 0.5 hrs; type: functional; conditions: albino CF1, 0.5 h, read-out: MED
Mus musculus [41] = test: Neurotoxicity in albino CF1 mouse assessed as minimal motor impairment at 30 to 300 mg/kg, ip after 0.5 hrs by rotarod test; conditions: in vivo
Mus musculus [42] = test: Neurotoxicity in albino CF1 mouse assessed as minimal motor impairment at 80 mg/kg, ip after 0.25 hrs by rotarod test; type: toxicity, organism-based; design: dose 80 mg/kg, route intraperitoneal; conditions: in vivo
Mus musculus [43] = test: Neurotoxicity in albino CF1 mouse assessed as minimal motor impairment at 200 mg/kg, ip after 0.25 hrs by rotarod test; type: toxicity, organism-based; design: dose 200 mg/kg, route intraperitoneal; conditions: in vivo
Mus musculus [44] = test: Neurotoxicity in albino CF1 mouse assessed as minimal motor impairment at 300 mg/kg, ip after 0.5 hrs by rotarod test; type: toxicity, organism-based; design: dose 300 mg/kg, route intraperitoneal; conditions: in vivo

IC50 [10]: 17.9 µM
Compound: Clc1cccc(-c2c[nH]c(-c3ccccc3)n2)c1
MED (Mus musculus [1]): 100 mg/kg | Activity (Mus musculus [2]): Non-toxic | Activity (Mus musculus [3]): Active | minimal effective dose (Mus musculus [4]): > 300 mg/kg | Activity (Mus musculus [5]): Active | Activity (Mus musculus [6]): inactive | Activity (Mus musculus [7]): inactive | Activity (Mus musculus [8]): Non-toxic | Activity (Mus musculus [9]): Non-toxic | PI (Mus musculus [11]): >3.6 | ED50 (Mus musculus [12]): > 250 mg/kg | TD50 (Mus musculus [13]): > 500 mg/kg | Activity (Rattus norvegicus [14]): Non-toxic | ED50 (Mus musculus [15]): 137 mg/kg | Activity (Rattus norvegicus [16]): inactive | Activity (Rattus norvegicus [17]): inactive | Activity (Rattus norvegicus [18]): inactive | Activity (Rattus norvegicus [19]): inactive | Activity (Rattus norvegicus [20]): inactive | Activity (Mus musculus [21]): Non-toxic | Activity (Mus musculus [22]): Non-toxic | Activity (Mus musculus [23]): Non-toxic | Activity (Mus musculus [24]): Non-toxic | Activity (Mus musculus [25]): inactive | Activity (Mus musculus [26]): Active | Activity (Mus musculus [27]): Active | Activity (Mus musculus [28]): inactive | Activity (Mus musculus [29]): inactive | Activity (Mus musculus [30]): inactive | Activity (Mus musculus [31]): inactive | Activity (Mus musculus [32]): inactive | Activity (Mus musculus [33]): inactive | Activity (Mus musculus [34]): Non-toxic | Activity (Mus musculus [35]): inactive | Activity (Mus musculus [36]): inactive | MED (Mus musculus [37]): > 300 mg/kg | minimal effective dose (Mus musculus [38]): > 30 mg/kg | minimal effective dose (Mus musculus [39]): 100 mg/kg | minimal effective dose (Mus musculus [40]): > 300 mg/kg | Activity (Mus musculus [41]): Non-toxic

Compound: c1ccc(-c2c[nH]c(-c3ccccc3)n2)cc1
MED (Mus musculus [1]): 100 mg/kg | Activity (Mus musculus [2]): Non-toxic | Activity (Mus musculus [3]): Active | minimal effective dose (Mus musculus [4]): > 300 mg/kg | Activity (Mus musculus [42]): Non-toxic | Activity (Mus musculus [43]): Non-toxic | ED50 (Mus musculus [12]): 161 mg/kg | TD50 (Mus musculus [13]): 126.8 mg/kg | Activity (Rattus norvegicus [14]): Non-toxic | ED50 (Mus musculus [15]): 61.7 mg/kg | Activity (Rattus norvegicus [16]): inactive | Activity (Rattus norvegicus [17]): inactive | Activity (Rattus norvegicus [18]): inactive | Activity (Rattus norvegicus [19]): inactive | Activity (Rattus norvegicus [20]): inactive | Activity (Mus musculus [21]): Non-toxic | Activity (Mus musculus [23]): Non-toxic | Activity (Mus musculus [44]): Toxic | Activity (Mus musculus [25]): inactive | Activity (Mus musculus [26]): Active | Activity (Mus musculus [27]): Active | Activity (Mus musculus [28]): inactive | Activity (Mus musculus [29]): inactive | Activity (Mus musculus [30]): inactive | Activity (Mus musculus [31]): inactive | Activity (Mus musculus [32]): inactive | Activity (Mus musculus [33]): inactive | Activity (Mus musculus [35]): Active | Activity (Mus musculus [36]): inactive | MED (Mus musculus [37]): 100 mg/kg | minimal effective dose (Mus musculus [38]): > 30 mg/kg | minimal effective dose (Mus musculus [39]): 100 mg/kg | minimal effective dose (Mus musculus [40]): > 300 mg/kg | Activity (Mus musculus [41]): Non-toxic
